The subject of one data set is T47D cells. Description: MTT cytotoxicity assay. It counts as cell-based, human. As to conditions: for IC50: MTT assay, calculated after two days exposure; for Survival (%) of T47D cells: MTT. The procedure:
(§1) The human breast cancer T47D and MCF-7 cell lines were obtained from Pasteur Institute Cell Bank of IRAN (Tehran, IRAN). Cells were maintained in RPMI-1640(Gibco, UK) culture medium supplemented with 10% fetal bovine serum (Gibco, UK) and 100 U Ml^-1 of penicillin and […] of streptomycin (Gibco, UK) at 37 C in 5% CO2 incubator. All reagent and chemicals used in this experiment were of cell culture or molecular biology grade, purchased from different international sources.
(§2) The MTT (3-[4, 5-dimethylthiazol-2-yl]-2,5-diphenyl tetrazolium bromide) based assay was performed by seeding 5000 cells (T47D and MCF-7) per 180 µL RPMI complete culture medium in each well of 96-well culture plates. The day after seeding, culture medium was changed with medium containing standard anti-tumor drug Doxorubicin as well as different concentrations of newly synthesized compounds and RPMI control (no drug). Cells were then incubated at 37 °C in 5% Co2 incubator for 48h and 72h. Then 25 µL of MTT solution (4mg Ml^-1) were added to each well and further incubated at 37 °C for 3h. At the end of incubation, formazan crystals were dissolved in 100 µL of DMSO and plates were read in a plate reader (TECAN, Austria) at 540 nm. This experiment was performed in triplicate determination each time ([18],[19]).

In a further data set the test system is MCF-7 cells. The data set can be described thus: MTT cytotoxicity assay. As to conditions: for IC50: Homo sapiens, MCF7, 48 h, MTT assay, calculated after two days exposure; for Survival (%) of MCF-7 cells: MTT. It counts as cell-based, human. Here is the method: as §1, §2
Another data set deals with T1, COX-2 (Ovis aries, UniProt P79208).
T1 construct: purchased Cayman Chemical
T1 sequence (P79208 17-603): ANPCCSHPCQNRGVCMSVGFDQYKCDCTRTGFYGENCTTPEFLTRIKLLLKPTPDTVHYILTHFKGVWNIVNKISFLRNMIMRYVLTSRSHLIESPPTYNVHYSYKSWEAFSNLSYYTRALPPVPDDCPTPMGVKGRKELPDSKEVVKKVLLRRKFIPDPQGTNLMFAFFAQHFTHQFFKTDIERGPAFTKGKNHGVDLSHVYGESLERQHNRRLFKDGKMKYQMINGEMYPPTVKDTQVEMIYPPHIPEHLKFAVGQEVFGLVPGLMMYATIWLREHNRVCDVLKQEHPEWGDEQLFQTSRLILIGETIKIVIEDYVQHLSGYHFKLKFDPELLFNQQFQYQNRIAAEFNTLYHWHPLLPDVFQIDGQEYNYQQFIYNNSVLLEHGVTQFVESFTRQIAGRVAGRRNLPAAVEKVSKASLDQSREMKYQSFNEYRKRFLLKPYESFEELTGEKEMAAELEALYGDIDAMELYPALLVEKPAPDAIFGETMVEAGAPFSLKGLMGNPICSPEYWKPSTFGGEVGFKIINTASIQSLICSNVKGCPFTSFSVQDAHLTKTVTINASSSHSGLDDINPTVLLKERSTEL
Description: biochemical. As to conditions: for Selectivity Index (COX-1 IC50/COX-2 IC50): in-vitro COX-2 selectivity index; for IC50: ovine COX-1/COX-2 assay kit, means of two determinations. Here is the method: (§3) In-vitro cyclooxygenase (COX) inhibition assays
(§4) The assay was performed using an enzyme chemiluminescentkit (Cayman Chemical, MI, USA) according to our previously reportedmethod([17])The Cayman chemical chemiluminescent COX
(§5) (ovine) inhibitor screening assay utilizes the heme-catalyzedhydroperoxidase activity of ovine cyclooxygenases to generateluminescence in the presence of a cyclic naphthalene hydrazideand the substrate arachidonic acid. Arachidonate-induced luminescencewas shown to be an index of real-time catalytic activity anddemonstrated the turnover inactivation of the enzyme. Inhibition

The target of another data set is T2, COX-1 (Ovis aries, UniProt P05979).
T2 construct: purchased Cayman Chemical
T2 sequence (P05979 25-600): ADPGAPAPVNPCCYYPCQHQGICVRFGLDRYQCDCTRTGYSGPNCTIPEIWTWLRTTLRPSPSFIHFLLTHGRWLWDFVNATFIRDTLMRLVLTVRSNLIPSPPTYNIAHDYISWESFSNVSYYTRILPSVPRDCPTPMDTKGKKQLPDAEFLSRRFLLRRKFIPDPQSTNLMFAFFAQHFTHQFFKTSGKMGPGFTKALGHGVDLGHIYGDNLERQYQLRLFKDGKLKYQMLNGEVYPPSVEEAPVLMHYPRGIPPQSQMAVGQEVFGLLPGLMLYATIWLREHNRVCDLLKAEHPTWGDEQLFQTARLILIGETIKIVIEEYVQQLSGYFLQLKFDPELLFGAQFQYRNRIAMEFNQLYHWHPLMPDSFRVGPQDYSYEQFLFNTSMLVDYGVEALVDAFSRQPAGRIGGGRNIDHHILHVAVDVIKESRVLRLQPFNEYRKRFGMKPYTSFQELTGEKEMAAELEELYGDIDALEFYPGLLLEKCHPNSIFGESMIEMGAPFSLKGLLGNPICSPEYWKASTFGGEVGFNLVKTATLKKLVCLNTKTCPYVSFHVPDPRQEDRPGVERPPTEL
The data set can be described thus: biochemical. As to conditions: ovine COX-1/COX-2 assay kit; means of two determinations. The procedure: as §3, §4, §5

What is called IC50 is the point on the concentration scale where inhibition reaches its midpoint. For `COc1cccc2c1C(=O)c1c(O)c3c(c(O)c1C2=O)C[C@@](O)(C(=O)CO)C[C@@H]3O[C@H]1C[C@H](N)[C@H](O)[C@H](C)O1` [Doxorubicin, reference compound], the IC50 was 0.1 µM in the data set on T47D cells (Homo sapiens, T47D, 48 h) and 0.25 µM with MCF-7 cells. For the same molecule, the “Survival (%) of T47D cells” value in the data set with T47D cells (doxorubicin at 100 nM, 48 h) is 53.2%; in the data set with T47D cells (doxorubicin at 100 nM, 72 h), 27.1%. Besides, the “Survival (%) of MCF-7 cells” value with MCF-7 cells (doxorubicin at 250 nM (column head says 10 µM), 48 h) was found to be 50.2%; in the data set on MCF-7 cells (doxorubicin at 250 nM (column head says 10 µM), 72 h), 31.7%.
For orientation: melting point means the temperature of the solid-liquid transition. `CS(=O)(=O)c1ccc(-c2cc(Cn3ccnc3)c3cccc(-c4ccccc4)c3n2)cc1` [Compound 9a, 4-((1H-Imidazol-1-yl)methyl)-2-(4-methylsulfonylphenyl)-8-phenyl-quinoline] gave a melting point of 196 to 198 °C. Moreover, on COX-2, the “Selectivity Index (COX-1 IC50/COX-2 IC50)” value came to 423.9 and the half-inhibitory concentration (IC50) worked out at 0.071 µM. In addition, on COX-1, half-maximal inhibition (IC50) was put at 30.1 µM. In the data set with T47D cells (25 µM compound, 48 h exposure), the “Survival (%) of T47D cells” value worked out at 33.8%. The “Survival (%) of T47D cells” value in the data set with T47D cells (25 µM compound, 72 h exposure) is 25.4%. Moreover, the IC50 in the data set with T47D cells (Homo sapiens, T47D, 48 h) is at most 25 µM. Moreover, in the data set with T47D cells, the IC50 is below 25 µM. Moreover, in the data set with MCF-7 cells (10 µM compound, 48 h exposure), the “Survival (%) of MCF-7 cells” value is on record as 38.3%. Also, the “Survival (%) of MCF-7 cells” value in the data set on MCF-7 cells (10 µM compound, 72 h exposure) was 26.7%. The IC50 in the data set on MCF-7 cells was below 10 µM.
Molecule `CS(=O)(=O)c1ccc(-c2cc(Cn3ccnc3)c3ccccc3n2)cc1` [Compound 9e, 4-((1H-Imidazol-1-yl)methyl)-2-(4-methylsulfonylphenyl)-quinoline] showed a melting point of 189 to 190 °C. In addition, at COX-2, the “Selectivity Index (COX-1 IC50/COX-2 IC50)” value stood at 179.9 and the midpoint of inhibition, the IC50, lay at 0.072 µM. Besides, on COX-1, the half-inhibitory concentration (IC50) was determined as 13 µM. The “Survival (%) of T47D cells” value with T47D cells (25 µM compound, 48 h exposure) is given as 47.4%. In the data set on T47D cells (25 µM compound, 72 h exposure), the “Survival (%) of T47D cells” value stood at 47.5%. In addition, the concentration for half-maximal inhibition (IC50) with T47D cells (Homo sapiens, T47D, 48 h) is 50 µM. For the same molecule, the half-maximal inhibitory concentration (IC50) in the data set with T47D cells was 25 µM. Further, the “Survival (%) of MCF-7 cells” value in the data set with MCF-7 cells (10 µM compound, 48 h exposure) was found to be 67.2%. Further, the “Survival (%) of MCF-7 cells” value in the data set on MCF-7 cells (10 µM compound, 72 h exposure) was determined as 58.2%.
Molecule `CS(=O)(=O)c1ccc(-c2cc(Cn3ccnc3)c3ccc4ccccc4c3n2)cc1` [Compound 9c, 4-((1H-Imidazol-1-yl)methyl)-2-(4-methylsulfonylphenyl)-benzo[h]-quinoline] returned a melting point of 216 to 217 °C. For the same molecule, on COX-2, the “Selectivity Index (COX-1 IC50/COX-2 IC50)” value turned out to be 527.9 and the IC50 stood at 0.068 µM. The molecule further showed a half-maximal inhibitory concentration (IC50) on COX-1 of 35.9 µM. The “Survival (%) of T47D cells” value with T47D cells (25 µM compound, 48 h exposure) was 75.8%. Moreover, in the data set with T47D cells (25 µM compound, 72 h exposure), the “Survival (%) of T47D cells” value came to 68.9%. In the data set with T47D cells (Homo sapiens, T47D, 48 h), the half-inhibitory concentration (IC50) is 50 µM. In addition, the “Survival (%) of MCF-7 cells” value with MCF-7 cells (10 µM compound, 48 h exposure) stood at 48.4%. The “Survival (%) of MCF-7 cells” value in the data set on MCF-7 cells (10 µM compound, 72 h exposure) amounted to 41.3%. Besides, in the data set on MCF-7 cells, the IC50 is 10 µM.
As for `CS(=O)(=O)c1ccc(-c2cc(Cn3ccnc3)c3ccc4c(c3n2)CCCC4)cc1` [Compound 9d, 4-((1H-Imidazol-1-yl)methyl)-7,8,9,10-tetrahydro-2-(4-methylsulfonylphenyl)-benzo[h]-quinoline], the melting point fell in the range of 247 to 248 °C. Besides, on COX-2, the “Selectivity Index (COX-1 IC50/COX-2 IC50)” value is given as 547.6 and inhibition was half-maximal at 0.063 µM (IC50). This molecule also registered an IC50 against COX-1 of 34.5 µM. In addition, the “Survival (%) of T47D cells” value with T47D cells (25 µM compound, 48 h exposure) came to 49.1%. Besides, in the data set on T47D cells (25 µM compound, 72 h exposure), the “Survival (%) of T47D cells” value is given as 26.1%. Besides, in the data set on T47D cells (Homo sapiens, T47D, 48 h), the 50% inhibitory concentration (IC50) was 25 µM. The “Survival (%) of MCF-7 cells” value with MCF-7 cells (10 µM compound, 48 h exposure) turned out to be 4%. Besides, in the data set with MCF-7 cells (10 µM compound, 72 h exposure), the “Survival (%) of MCF-7 cells” value is on record as 0.7%. Further, in the data set with MCF-7 cells, the concentration for half-maximal inhibition (IC50) is below 5 µM.
On to `Cc1ccc2c(Cn3ccnc3)cc(-c3ccc(S(C)(=O)=O)cc3)nc2c1C` [Compound 9b, 4-((1H-Imidazol-1-yl)methyl)-2-(4-methylsulfonylphenyl)-7,8-dimethyl-quinoline], for which the melting point was 218 to 219 °C. Besides, on COX-2, the “Selectivity Index (COX-1 IC50/COX-2 IC50)” value stood at 288.9 and inhibition was half-maximal at 0.09 µM (IC50). The molecule further came in with a 50% inhibitory concentration (IC50) against COX-1 of 26 µM. Besides, the “Survival (%) of T47D cells” value in the data set on T47D cells (25 µM compound, 48 h exposure) amounted to 66.2%. Also, the “Survival (%) of T47D cells” value with T47D cells (25 µM compound, 72 h exposure) was 69.5%. For the same molecule, in the data set on T47D cells (Homo sapiens, T47D, 48 h), the IC50 is 50 µM. Further, the “Survival (%) of MCF-7 cells” value with MCF-7 cells (10 µM compound, 48 h exposure) was 61%. Further, the “Survival (%) of MCF-7 cells” value in the data set with MCF-7 cells (10 µM compound, 72 h exposure) came out at 47.2%.

The values are drawn from PMC4986100, “Design, Synthesis and Biological Evaluation of4-(Imidazolylmethyl)-2-(4-methylsulfonyl phenyl)-Quinoline Derivatives as Selective COX-2 Inhibitors and In-vitro Anti-breast Cancer Agents” (Iranian Journal of Pharmaceutical Research : IJPR, 2016).
